Source: publication PMC6631349 (Xenobiotica; the fate of foreign compounds in biological …, 2014)

How the values were obtained:
UGT2B4 = target: T1, UGT2B4 (Homo sapiens, UniProt P06133); assay: UGT2B4 supersomes-catalyzed 4-MU glucuronidation inhibition; conditions: 50 μM PC components; recombinant human UGT; mean of triplicate
T1 sequence (P06133 24-528): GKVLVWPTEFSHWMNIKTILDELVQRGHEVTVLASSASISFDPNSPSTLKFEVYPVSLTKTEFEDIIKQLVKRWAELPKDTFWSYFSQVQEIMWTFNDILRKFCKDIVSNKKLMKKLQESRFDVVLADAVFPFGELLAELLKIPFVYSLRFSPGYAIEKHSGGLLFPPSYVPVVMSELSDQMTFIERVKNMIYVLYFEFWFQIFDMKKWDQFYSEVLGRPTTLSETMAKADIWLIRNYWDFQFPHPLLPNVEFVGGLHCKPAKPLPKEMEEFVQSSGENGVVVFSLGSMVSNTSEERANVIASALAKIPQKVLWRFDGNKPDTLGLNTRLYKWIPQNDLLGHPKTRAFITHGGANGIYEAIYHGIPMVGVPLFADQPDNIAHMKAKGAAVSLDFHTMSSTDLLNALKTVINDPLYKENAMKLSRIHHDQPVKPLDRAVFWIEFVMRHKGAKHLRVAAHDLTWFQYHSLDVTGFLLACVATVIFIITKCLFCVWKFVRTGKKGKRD

UGT2B7 = target: T2, UGT2B7 (Homo sapiens, UniProt P16662); assay: UGT2B7 supersomes-catalyzed 4-MU glucuronidation inhibition; conditions: for residual activity 2B7: 50 μM PC components, recombinant human UGT, mean of triplicate
T2 sequence (P16662 24-529): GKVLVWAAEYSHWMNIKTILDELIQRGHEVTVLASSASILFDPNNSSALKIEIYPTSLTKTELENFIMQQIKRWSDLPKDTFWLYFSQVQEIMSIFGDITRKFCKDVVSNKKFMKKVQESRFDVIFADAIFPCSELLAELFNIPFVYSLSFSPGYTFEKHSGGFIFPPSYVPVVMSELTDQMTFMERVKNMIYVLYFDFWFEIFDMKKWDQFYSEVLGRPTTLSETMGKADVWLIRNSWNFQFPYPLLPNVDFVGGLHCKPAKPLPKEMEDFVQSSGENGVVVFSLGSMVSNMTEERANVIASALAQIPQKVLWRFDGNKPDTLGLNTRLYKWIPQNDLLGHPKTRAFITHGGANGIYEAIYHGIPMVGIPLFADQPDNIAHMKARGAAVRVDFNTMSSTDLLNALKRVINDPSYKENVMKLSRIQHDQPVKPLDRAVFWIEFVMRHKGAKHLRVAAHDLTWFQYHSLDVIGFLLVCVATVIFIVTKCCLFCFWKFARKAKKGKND

UGT1A7 = target: T3, UGT1A7 (Homo sapiens, UniProt Q9HAW7); assay: UGT1A7 supersomes-catalyzed 4-MU glucuronidation inhibition; conditions: 50 μM PC components; recombinant human UGT; mean of triplicate
T3 sequence (Q9HAW7 26-530): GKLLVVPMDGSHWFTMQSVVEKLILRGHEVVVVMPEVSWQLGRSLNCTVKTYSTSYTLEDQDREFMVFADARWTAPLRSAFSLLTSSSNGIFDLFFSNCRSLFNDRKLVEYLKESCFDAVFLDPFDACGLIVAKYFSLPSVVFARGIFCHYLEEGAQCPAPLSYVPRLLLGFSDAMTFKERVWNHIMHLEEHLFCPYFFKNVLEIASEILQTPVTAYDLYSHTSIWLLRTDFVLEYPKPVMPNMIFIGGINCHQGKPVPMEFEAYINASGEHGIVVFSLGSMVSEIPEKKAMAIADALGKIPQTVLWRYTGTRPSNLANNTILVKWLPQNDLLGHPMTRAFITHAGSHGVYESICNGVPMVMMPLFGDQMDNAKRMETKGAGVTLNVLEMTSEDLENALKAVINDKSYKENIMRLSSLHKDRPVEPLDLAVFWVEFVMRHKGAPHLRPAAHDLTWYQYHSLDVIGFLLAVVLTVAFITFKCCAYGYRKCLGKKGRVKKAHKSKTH

UGT1A1 = target: T4, UGT1A1 (Homo sapiens, UniProt P22309); assay: UGT1A1 supersomes-catalyzed 4-MU glucuronidation inhibition; conditions: 50 μM PC components; recombinant human UGT; mean of triplicate
T4 sequence (P22309 26-533): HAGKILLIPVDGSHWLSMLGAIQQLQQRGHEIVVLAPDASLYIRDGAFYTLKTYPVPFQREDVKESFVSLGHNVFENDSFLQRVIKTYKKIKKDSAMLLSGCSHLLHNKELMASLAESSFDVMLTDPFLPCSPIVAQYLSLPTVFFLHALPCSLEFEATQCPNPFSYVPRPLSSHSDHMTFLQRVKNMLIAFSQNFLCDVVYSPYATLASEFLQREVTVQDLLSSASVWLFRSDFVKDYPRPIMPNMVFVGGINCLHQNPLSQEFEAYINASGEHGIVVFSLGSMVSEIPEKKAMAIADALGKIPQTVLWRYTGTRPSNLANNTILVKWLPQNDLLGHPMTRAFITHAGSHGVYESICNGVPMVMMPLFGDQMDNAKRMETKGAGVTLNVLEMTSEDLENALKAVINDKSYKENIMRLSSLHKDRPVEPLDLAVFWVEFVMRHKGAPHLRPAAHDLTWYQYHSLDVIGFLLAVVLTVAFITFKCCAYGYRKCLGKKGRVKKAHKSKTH

UGT1A3 = target: T5, UGT1A3 (Homo sapiens, UniProt P35503); assay: UGT1A3 supersomes-catalyzed 4-MU glucuronidation inhibition; conditions: 50 μM PC components; recombinant human UGT; mean of triplicate
T5 sequence (P35503 29-534): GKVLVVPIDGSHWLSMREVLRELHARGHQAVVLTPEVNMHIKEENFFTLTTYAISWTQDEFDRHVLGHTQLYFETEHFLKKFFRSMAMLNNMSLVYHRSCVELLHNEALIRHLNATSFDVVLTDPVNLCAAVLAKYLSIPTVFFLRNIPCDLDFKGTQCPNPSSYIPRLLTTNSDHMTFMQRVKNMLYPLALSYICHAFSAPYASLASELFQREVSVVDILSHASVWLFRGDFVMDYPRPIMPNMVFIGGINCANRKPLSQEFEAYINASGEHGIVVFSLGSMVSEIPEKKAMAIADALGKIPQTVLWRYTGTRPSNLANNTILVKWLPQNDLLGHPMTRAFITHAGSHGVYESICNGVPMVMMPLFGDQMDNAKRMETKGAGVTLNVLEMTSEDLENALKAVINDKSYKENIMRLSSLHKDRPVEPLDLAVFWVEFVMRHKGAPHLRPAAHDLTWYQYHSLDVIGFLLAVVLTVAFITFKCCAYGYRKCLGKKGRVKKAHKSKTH

## CCCCCCCCCCCCCC(=O)OC[C@H](COP(=O)([O-])OCC[N+](C)(C)C)OC(=O)CCCCCCCCCCCCC [PC 14:0, 14:0]
UGT2B4
  residual activity 2B4: 179.0%
UGT2B7
  residual activity 2B7: 66.1%
UGT1A7
  residual activity 1A7: 162.3%
UGT1A1
  residual activity 1A1: 208.9%
UGT1A3
  residual activity 1A3: 97.3%

## CCCCCCCCCCCCCCC(=O)OC[C@H](COP(=O)([O-])OCC[N+](C)(C)C)OC(=O)CCCCCCCCCCCCCC [PC 15:0, 15:0]
UGT2B4
  residual activity 2B4: 191.3%
UGT2B7
  residual activity 2B7: 51.7%
UGT1A7
  residual activity 1A7: 172.7%
UGT1A1
  residual activity 1A1: 210.1%
UGT1A3
  residual activity 1A3: 103.4%

## CCCCCCCCCCCCCCCC(=O)OC[C@H](COP(=O)([O-])OCC[N+](C)(C)C)OC(=O)CCCCCCCCCCCCCCC [PC 16:0, 16:0]
UGT2B4
  residual activity 2B4: 185.1%
UGT2B7
  residual activity 2B7: 60.3%
UGT1A7
  residual activity 1A7: 155.2%
UGT1A1
  residual activity 1A1: 192.6%
UGT1A3
  residual activity 1A3: 92.6%

## CCCCCCCCCCCCCCCCC(=O)OC[C@H](COP(=O)([O-])OCC[N+](C)(C)C)OC(=O)CCCCCCCCCCCCCCCC [PC 17:0, 17:0]
UGT2B4
  residual activity 2B4: 175.4%
UGT2B7
  residual activity 2B7: 35.5%
UGT1A7
  residual activity 1A7: 138.9%
UGT1A1
  residual activity 1A1: 192.3%
UGT1A3
  residual activity 1A3: 81.4%

## CCCCCCCCCCCCCCCCCC(=O)OC[C@H](COP(=O)([O-])OCC[N+](C)(C)C)OC(=O)CCCCCCCCCCCCCCCCC [PC 18:0, 18:0]
UGT2B4
  residual activity 2B4: 93.4%
UGT2B7
  residual activity 2B7: 36.0%
UGT1A7
  residual activity 1A7: 139.9%
UGT1A1
  residual activity 1A1: 208.2%
UGT1A3
  residual activity 1A3: 83.7%

## CC/C=C\C/C=C\C/C=C\C/C=C\C/C=C\C/C=C\CCC(=O)O[C@H](COC(=O)CCCCCCCCCCCCCCCCC)COP(=O)([O-])OCC[N+](C)(C)C [PC 18:0, 22:6, 1-stearoyl-2-docosahexaenoyl-sn-glycero-3-phosphocholine]
UGT2B4
  residual activity 2B4: 183.2%
UGT2B7
  residual activity 2B7: 73.6%
UGT1A7
  residual activity 1A7: 167.9%
UGT1A1
  residual activity 1A1: 186.6%
UGT1A3
  residual activity 1A3: 90.0%

## CCCCCCCCCCCCCCCCCCC(=O)OC[C@H](COP(=O)([O-])OCC[N+](C)(C)C)OC(=O)CCCCCCCCCCCCCCCCCC [PC 19:0, 19:0]
UGT2B4
  residual activity 2B4: 83.4%
UGT2B7; 50 μM
  inhibition percentage of UGT2B7 activity: 76.9%
UGT2B7
  residual activity 2B7: 23.1%
UGT1A7
  residual activity 1A7: 135.5%
UGT1A1
  residual activity 1A1: 184.9%
UGT1A3
  residual activity 1A3: 75.9%

## CCCCCCCCCCCCCCCCCCCC(=O)OC[C@H](COP(=O)([O-])OCC[N+](C)(C)C)OC(=O)CCCCCCCCCCCCCCCCCCC [PC 20:0, 20:0]
UGT2B4
  residual activity 2B4: 79.5%
UGT2B7
  residual activity 2B7: 88.9%
UGT1A7
  residual activity 1A7: 125.5%
UGT1A1
  residual activity 1A1: 202.3%
UGT1A3
  residual activity 1A3: 90.8%

## CCCCCCCCCCCCCCCCCCCCC(=O)OC[C@H](COP(=O)([O-])OCC[N+](C)(C)C)OC(=O)CCCCCCCCCCCCCCCCCCCC [PC 21:0, 21:0]
UGT2B4
  residual activity 2B4: 80.3%
UGT2B7
  residual activity 2B7: 26.2%
UGT1A7
  residual activity 1A7: 122.0%
UGT1A1
  residual activity 1A1: 185.2%
UGT1A3
  residual activity 1A3: 88.2%

## CCCCCCCCCCCCCCCCCCCCCC(=O)OC[C@H](COP(=O)([O-])OCC[N+](C)(C)C)OC(=O)CCCCCCCCCCCCCCCCCCCCC [PC 22:0, 22:0]
UGT2B4
  residual activity 2B4: 60.0%
UGT2B7
  residual activity 2B7: 33.0%
UGT1A7
  residual activity 1A7: 86.2%
UGT1A1
  residual activity 1A1: 170.3%
UGT1A3
  residual activity 1A3: 92.1%

## CCCCCCCCCCCCCCCCCCCCCCC(=O)OC[C@H](COP(=O)([O-])OCC[N+](C)(C)C)OC(=O)CCCCCCCCCCCCCCCCCCCCCC [PC 23:0, 23:0]
UGT2B4
  residual activity 2B4: 168.3%
UGT2B7
  residual activity 2B7: 69.5%
UGT1A7
  residual activity 1A7: 118.8%
UGT1A1
  residual activity 1A1: 133.7%
UGT1A3
  residual activity 1A3: 80.4%
